Data set [1] concerns S. mutans UA159 (ATCC 700610). The experiment in a line: Minimal inhibition concentration (MIC) determination, S. mutans UA159. The data set is classed as cell-based. The settings on record: Streptococcus mutans, ATCC700610, BHI medium, 48 h, A600. The method, then: Minimal inhibition concentration (MIC) determination . S.mutans UA159 (ATCC 700610) and 20 clinical S.mutans strains were used. S.mutans UA159 was purchased from Shanghai Biofeng Biotechnology Co., LTD. These bacteria grown in brain heart infusion broth (BHI, Beijing Land Bridge, China) at 37 °C under anaerobic conditions.
Due to bacteria incubation under the condition of excessive acid for a long time will affect its vitality, therefore, pH 5.5 was choose as acidic condition for the MIC determination. Peptides and CHX were dissolved in BHI medium of different pHs (pH 5.5 and 7.0) using serial dilutions to obtain different diluted solutions. 2 µL of bacteria (1×10^7 CFU (colony forming units) in the logarithmic phase were added into each well of 96-well plates containing 200 µL different diluted solutions. Note that […]
the aggregate behavior of peptides. In order to avoid interfering with the MIC test, it is important to set up the control wells which only contain different concentrations of peptides in BHI medium of different pHs. The absorbance at 600 nm was detected with a microplate reader (Multiskan Spectrum, BioTek Inc., USA) after 48 h. The inhibition rate of drugs on bacteria was calculated based on the absorbance […]
The SYTO 9 / PI double staining and scanning electron microscopy (SEM) were also performed to evaluate the bacterial killing and bacterial membrane disruption. […]

Data set [2] concerns human gingival fibroblast (HGF-1). Kind of data set: Cytotoxicity, CCK-8 assay. In kind it is cell-based. The note with it: HGF1. The text has this: Figure S12. H&E staining of gingival, palatal and gastric tissues(Scale bar: 100
Supplementary Fig.13. The toxicity of pHly -1 NPs to human gingival fibroblast
(HGF-1) was assessment by CCK-8 assay. DMEM medium(10 % FBS) was used
for cell culture and DMEM m edium was used for drug preparation in toxicity tests.
The All of the data are represented as average±SD. Each experiment consists of 3 […]
In general terms: Formazan colour is commonly taken as a measure of viable cells.

A further data set concerns fresh mice erythrocytes. In kind it is cell-based, mouse. The settings on record: 30 min, PBS pH 7.4. The text has this: Peptide and different pH of culture medium prepared. The pH of BHI medium was adjusted by HCl and NaOH. All peptides, including lycosin- I, pHly-1, s-pHly-1 were synthesized on a Rink amide-AM resin using the SPPS
(9- fluorenyl-methoxycarbonyl solid-phase peptide synthesis) method as reported previously1. Then peptides were cleaved from the resin using TFA/1,2- ethanedithiol/thioanisole/anisole (90/5/3/2 (v/v)), precipitated in cold diethyl ether and the collected precipitate was dried by air -drying . The prepared peptides were purified by reverse phase- HPLC (RP-HPLC) and their molecular weights were determined by MALDI-TOF MS.
Hemolytic assay. Approximately 4 % (in volume) of the mouse erythrocyte s were prepared by diluting fresh erythrocytes to 25-fold dilution with PBS buffer (pH 7.4).
The stock peptide solution ([…]) diluted by PBS solution to reach various concentrations (200 μL) was placed in a 1.5 mL sterile microfuge tube, followed by the addition of 200 μ L o f erythrocyte suspension. The mixture was incubated at 37 °C for 30 min. Then, the mixture was centrifuged at 3,500 rpm for 5 min to collect the supernatant. Aliquots (100 μL) of the supernatant were removed to 96-well plates, and the absorbance was detected at 450 nm using a microplate reader (Multiskan Spectrum, BioTek Inc., USA). Untreated erythrocyte suspension in an equal volume of PBS solution and 0.1% Triton X-100 were used as the negative control and positive […]
Isolation and culture of clinical S.mutans strains. Ethical approval of the study and the written consent/permission forms were obtained from Institutional Review Board (IRB) at Hunan Normal University prior to the study. For each child, written permission form was reviewed and signed by their legal guardians. Plaque -biofilm samples were collected from patients, including 16 Middle-aged and young patients and 4 children (age between 48 and 72 months) diagnosed with severe early childhood caries (S-ECC) in Changsha Stomatological Hospital. […]

Values after ≈ are worked out from the molar mass of the structure shown. No end group written: not given here. Some results are limits rather than exact numbers.

On to `[H]/N=C(\N/C(=N/[H])NCCCCCCNC(=N)NC(=N)Nc1ccc(Cl)cc1)Nc1ccc(Cl)cc1` [CHX, chlorhexidine], for which the MIC (usually the lowest concentration that inhibits growth of the organism) in data set [1] (pH 5.5) was 0.5 µM (≈ 0.253 µg/mL); in data set [1] (pH 7.0) it was 1 µM (≈ 0.505 µg/mL). The midpoint of inhibition in data set [2], the IC50, lay at 4.9 µM.
For the molecule “KIWFHAMHIIAHFIAHQHLHQHL-NH2 [pHly-1 NPs]”, the hemolysis entry in the data set with fresh mice erythrocytes (500 μM) was “about 20%”. For the same molecule, in the data set with fresh mice erythrocytes (37 °C), the HC50 (commonly the concentration that lyses half of the red blood cells) was greater than 500 µM.

The record behind these values is paper PMC9254247, “Dual-sensitive antibacterial peptide nanoparticles prevent dental caries” (Theranostics, 2022).
